According to patent US8921273B2, “Substituted pyridazines having herbicidal action” (BASF SE, priority 2010, dated 2014):

Experiments:
Assay in all cases: greenhouse herbicidal activity, post-emergence treatment
Settings in all cases: application rate 0.5 kg/ha, scale from 0 to 100
CHEAL = format: in vivo, Chenopodium album
From the text: (§1) The seeds of the test plants were sown separately for each species. For the post-emergence treatment, the test plants were first grown to a height of 3 to 15 cm, depending on the plant habit, and only then treated with the active ingredients which had been suspended or emulsified in water. For this purpose, the test plants were either sown directly and grown in the same containers, or they were first grown separately as seedlings and transplanted into the test containers a few days prior to treatment. Depending on the species, the plants were kept at 10-25° C. or 20-35° C. The test period extended over 2 to 4 weeks. During this time, the plants were tended, and their response to the individual treatments was evaluated. Evaluation was carried out using a scale from 0 to 100. 100 means no emergence of the plants, or complete destruction of at least the aerial moieties, and 0 means no damage, or normal course of growth. A good herbicidal activity is given at values of at least 70 and a very good herbicidal activity is given at values of at least 85. The plants used in the greenhouse experiments belonged to the following species: [table]

ECHCG = format: in vivo, Echinochloa crus-galli
From the text: as §1

AMARE = format: in vivo, Amaranthus retroflexus
From the text: as §1

GALAP = format: in vivo, Galium aparine
From the text: as §1

SMILES	herbicidal activity against CHEAL (CHEAL)	herbicidal activity against ECHCG (ECHCG)	herbicidal activity against AMARE (AMARE)	herbicidal activity against GALAP (GALAP)
O=c1c(-c2cc(Cl)cc(N3CCOCC3)c2C(F)(F)F)c(O)c2nccnc2n1CC(F)F [I-1, 7-[5-chloro-3-morpholino-2-(trifluoromethyl)phenyl]-5-(2,2-difluoroethyl)-8-hydroxy-pyrido[2,3-b]pyrazin-6-one]	very good herbicidal activity (a very good herbicidal activity is given at values of at least 85)	very good herbicidal activity (a very good herbicidal activity is given at values of at least 85)		
O=c1c(-c2cccc(C3=NOCC3)c2C(F)(F)F)c(O)c2nccnc2n1CC(F)F [I-2, 5-(2,2-difluoroethyl)-7-[3-(4,5-dihydroisoxazol-3-yl)-2-(trifluoromethyl)phenyl]-8-hydroxy-pyrido[2,3-b]pyrazin-6-one]			very good herbicidal activity (a very good herbicidal activity is given at values of at least 85)	very good herbicidal activity (a very good herbicidal activity is given at values of at least 85)
